Assay results published in patent publication US6703361B2, “Method of treating or preventing Type 1 diabetes by oral administration of insulin” (AutoImmune Inc., priority 1990, dated 2004).
“Also recorded” adds a separate entry of the source.

B1: myelin basic protein (protein, UniProt P02687 1-169, looked up)
Myelin basic protein: AAQKRPSQRSKYLASASTMDHARHGFLPRHRDTGILDSLGRFFGSDRGAPKRGSGKDGHHAARTTHYGSLPQKAQGHRPQDENPVVHFFKNIVTPRTPPPSQGKGRGLSLSRFSWGAEGQKPGFGYGGRASDYKSAHKGLKGHDAQGTLSKIFKLGGRDSRSGSPMARR
notes: myelin basic protein (obtained from Pel Freez) fed as a control protein

How the values were obtained:
Format in all cases: in vivo
[1] = tested on: NOD mice suffering from hyperglycemia; assay: Treatment of initial stages of diabetes in NOD mice (Example 5); settings: oral and aerosol administration to hyperglycemic NOD mice; expected
Description: Insulin (0 to 1 mg as in Examples 1 and 2) will be administered to NOD mice which are suffering from hyperglycemia in an oral and aerosol form. The treatments will begin by weeks 12-20 of age, by which the serum glucose levels are at hyperglycemic concentrations in a certain percentage of animals prior to onset of diabetes.

[2] = tested on: spontaneous diabetes in NOD mice; assay: Effect of feeding porcine insulin on spontaneous diabetes in NOD mice (Example 1)
Excerpt: NOD (non-obese diabetic mice) were obtained from Taconic Laboratories (Germantown, Mass.) at 4 weeks of age. There were a total of 30 animals in each of the groups mentioned below at the beginning of the experiment. At 4½ weeks of age, animals were orally administered Porcine insulin (Novo Laboratories, Danbury, Conn.). Each animal received two treatments orally twice a week until 9 weeks of age. The mice were fed either saline (control) or 10 micrograms, 100 micrograms, or 1 milligram of Porcine insulin. The animals were fed (gavaged) with an 18 gauge ball-point needle (Popper and Sons, Inc., New Hyde Park, N.Y.). Beginning at 10 weeks the animals were then fed once a week for a total of 33 weeks. Beginning at 12 weeks the urine was tested weekly for the presence of glucose using Glucosuria test tape (Eli Lilly, Indianapolis, Ind.). If an animal tested 3+ or higher on the glucose urine test, a serum sample was taken and blood glucose measured using a glucose analyzer (Beckman). If the blood glucose was 220 or higher, the animals were classified as diabetic and then sacrificed.

diabetes in NOD mice = assay: Effect of aerosol administration of insulin on diabetes in NOD mice (Example 4); settings: insulin 0 to 1 mg in aerosol form by nebulizer; expected
Description: Insulin (0 to 1 mg as in Examples 1 and 2) will be administered to NOD mice as described above in Examples 1 and 2 except in aerosol form by nebulizer.

insulitis in NOD mice = assay: Preliminary experiments on insulitis in insulin-fed NOD mice; settings: NOD mice fed 1 mg of insulin vs PBS-fed, data not shown
Excerpt: Therefore, oral administration of insulin to NOD mice appeared to be affecting the infiltration of immune system cells into the pancreas and thus halting disease progression by preserving beta cell function.

[3] = tested on: blood glucose in fasting NOD mice; assay: Glucose post oral insulin in fasting 7 week NOD mice (Example 2); settings: for blood glucose after feeding: 1 mg fed orally, fasting 7 week old NOD mice
Description: In order to determine whether any endocrinologic (i.e. direct lowering of blood sugar) effects occurred following the feeding of insulin, 7 week old NOD mice (5 mice per group) were fed 1 mg of porcine insulin or 1 mg of myelin basic protein (obtained from Pel Freez, Rogers, Ark.) as a control protein. Blood glucose was then measured over the next 24 hour period. As a positive control, a separate group of animals were injected subcutaneously with 20 micrograms of Porcine insulin. All animals were kept in the fasting state.

| Molecule | beta cell function [1] | serum glucose concentrations [1] | development of diabetes ([2]; NOD mice fed 1 mg insulin orally) | development of diabetes ([2]; NOD mice fed 10 micrograms insulin orally) | development of diabetes ([2]; NOD mice fed 100 micrograms insulin orally) | incidence of diabetes ([2]; all doses of orally administered insulin tested (10 micrograms, 100 micrograms, 1 mg)) | prevention of manifestation of symptoms (hyperglycemia) of Type 1 diabetes (diabetes in NOD mice) | inflammatory immune system cells surrounding the pancreas (insulitis) (insulitis in NOD mice) | blood glucose after feeding [3] | endocrinologic (metabolic) effects from feeding ([3]; 1 mg oral insulin, NOD mice) | period over which the glucose decrease persisted ([3]; 20 micrograms porcine insulin injected subcutaneously, fasting NOD mice) [h] | decrease in glucose level ([3]; 20 micrograms porcine insulin injected subcutaneously, fasting NOD mice (positive control)) |
| --- | --- | --- | --- | --- | --- | --- | --- | --- | --- | --- | --- | --- |
| Porcine insulin | preservation of beta cell function | reduction in serum glucose concentrations to near normal levels | none of the mice went on to develop diabetes; also recorded: no diabetes developed; also recorded: None of the animals developed diabetes | diabetes developed | diabetes developed | lower incidence of diabetes; also recorded: reduced the numbers of these mice which subsequently went on to develop diabetes | effective in preventing the manifestation of symptoms | fewer inflammatory immune system cells surrounding the pancreas | no drop in the blood glucose | not a metabolic effect; also recorded: no endocrinologic (metabolic) effects | 4 | approximately 80 mg % |
| B1 |  |  |  |  |  |  |  |  | no drop in the blood glucose |  |  |  |
